Experimental findings from patent US6407130B1, “Carboxamide-substituted benzimidazoles having tryptase-inhibiting activity” (Boehringer Ingelheim Pharma KG, priority 1999, dated 2002) are described below.

The term IC50 denotes the midpoint of a concentration-inhibition curve.

Counter-ions that a name gives are not always drawn.

For this test, the target named is T1, rh beta tryptase (Homo sapiens, UniProt Q15661).
T1 construct: purchased Promega
Put plainly: tryptase inhibition test (cleavage of N-p-tosyl-Gly-Pro-Lys-para-nitroaniline, p-nitroaniline measured at 405 nm). The format is biochemical. Particulars: Tris HCl buffer pH 7.4 with calcium and heparin; substrate 0.6 mM; 5 minutes' pre-incubation, 5 minutes incubation at 37° C. The protocol:
The compounds according to the invention are characterised by their tryptase-inhibiting activity. This ability to inhibit tryptase was investigated using the test described as follows. The measurement is carried out in Tris HCl buffer (100 mM), which additionally contains calcium (5 mM) and heparin ([…]), at pH 7.4. The standard used is rh beta tryptase which may be obtained commercially from Promega, for example. The substrate used is N-p-tosyl-Gly-Pro-Lys-para-nitroaniline in a concentration of 0.6 mM. The substrate is digested with tryptase to form p-nitroaniline which can be measured at 405 nm. Usually, an incubation period of 5 minutes and an incubation temperature of 37° C. are chosen. The enzyme activity used is 0.91 U/ml. The measurements are carried out in an Autoanalyser (Cobas Bio) made by Hofmann LaRoche. The potential inhibitory substances are used in concentrations of 10 μM in the screening, the inhibition of the tryptase being given in percent. The IC50 is determined at over 70% inhibition (concentration at which 50% of the enzyme activity is inhibited). After 5 minutes' pre-incubation of the potential inhibitory substances, the substrate is added to start the reaction, the formation of p-nitroaniline being taken as a measurement of the enzyme activity after 5 minutes, after testing the linearity.

T1 sequence (Q15661 31-275): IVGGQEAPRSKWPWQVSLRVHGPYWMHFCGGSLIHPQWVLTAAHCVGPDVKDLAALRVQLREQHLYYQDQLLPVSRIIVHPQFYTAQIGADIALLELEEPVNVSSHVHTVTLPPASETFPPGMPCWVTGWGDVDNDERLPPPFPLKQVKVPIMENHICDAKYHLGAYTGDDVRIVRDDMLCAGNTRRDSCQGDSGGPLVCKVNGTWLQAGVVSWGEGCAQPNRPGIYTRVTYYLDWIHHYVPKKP

In the case of `CN(CC(=O)N(Cc1cccc2ccccc12)c1ccc2c(c1)nc(CCc1ccc(C(=N)N)cc1)n2C)Cc1cccc(C(=N)N)c1` [Example 18, N-{2-[2-(4-Amidinophenyl)-ethyl-1-methyl-benzimidazol-5-yl}-N-(- naphthylmethylamino)-N-methyl-N-[3-amidinobenzyl]-acetamide-trihydrochloride], the IC50 was found to be 12 nM. Take `CN(C)CCCNCC(=O)N(Cc1cccc2ccccc12)c1ccc2c(c1)nc(CCc1ccc(C(=N)N)cc1)n2C` [Example 78, N-{2-[2-(4-Amidinophenyl)-ethyl]-1-methyl-benzimidazol-5-yl}-N-(α-naphthylmethyl)-[2-(N-(3-dimethylaminopropyl)-amino)-acetamide]-trihydrochloride]: the IC50 came out at 21.3 nM. Turning to `Cn1c(CCc2ccc(C(=N)N)cc2)nc2cc(N(Cc3cccc4ccccc34)C(=O)CN3CCN(c4ccccn4)CC3)ccc21` [Example 40, N-{2-[2-(4-Amidinophenyl)-ethyl]-1-methyl-benzimidazol-5-yl}-N-( - naphthylmethyl)-[2-(1-pyridin-2-yl-piperazin-4-yl)-acetamide]-dihydro-chloride], the IC50 was 13 nM. As for `Cn1c(CCc2ccc(C(=N)N)cc2)nc2cc(N(Cc3ccc4ccccc4c3)C(=O)CCC3CCN(Cc4ccccc4)CC3)ccc21` [Example 50], the IC50 stood at 72 nM. Then “N-{2-[2-(4-Amidinophenyl)-ethyl]-1- methyl-benzimidazol-5-yl}-N-( - naphthylmethylamino)-[2-(4- trifluoromethylbenzylamino)- acetamide]-dihydrochloride [Example 44]”, with 31 nM.

As to `Cn1c(CCc2ccc(C(=N)N)cc2)nc2cc(N(Cc3ccc(N)cc3)C(=O)CNCc3ccc(N)cc3)ccc21` [Example 73, N-{2-[2-(4-Amidinophenyl)-ethyl]-1-methyl-benzimidazol-5-yl}-N-(4-aminobenzyl)-[2-(4-aminobenzylamino)-acetamide]-dihydrochloride], the IC50 came to 13.1 nM.

With `Cn1c(CCc2ccc(C(=N)N)cc2)nc2cc(N(Cc3cccc4ccccc34)C(=O)CCC3CCN(C(c4ccccc4)c4ccccc4)CC3)ccc21` [Example 64, N-{2-[2-(4-Amidinophenyl)-ethyl]-1-methyl-benzimidazol-5-yl}-N-( - naphthylmethyl)-[3-(1-diphenylmethyl-piperidin-4-yl)-propionamide]-trihydrochloride], the IC50 came to 25 nM. As for `Cn1c(CCc2ccc(C(=N)N)cc2)nc2cc(N(Cc3ccccc3)C(=O)CCCCNC(=N)N)ccc21` [Example 34, N-{2-[2-(4-Amidinophenyl)-ethyl]-1-methyl-benzimidazol-5-yl}-N-benzyl-[5-guanidino-pentanoic acid amide]-dihydrochloride], the IC50 was 43 nM. Then `Cn1c(CCc2ccc(C(=N)N)cc2)nc2cc(N(Cc3cccc4ccccc34)C(=O)CCc3cccc(C(=N)N)c3)ccc21` [Example 19, N-{2-[2-(4-Amidinophenyl)-ethyl]-1-methyl-benzimidazol-5-yl}-N-- naphthylmethyl-[3-(3-amidinophenyl)-propionamide]-dihydrochloride], with 16 nM; and `Cn1c(CCc2ccc(C(=N)N)cc2)nc2cc(N(Cc3cccc4ccccc34)C(=O)CN3CCC(O)(Cc4ccccc4)CC3)ccc21` [Example 69, N-{2-[2-(4-Amidinophenyl)-ethyl]-1-methyl-benzimidazol-5-yl}-N-( - naphthylmethyl)-[2-(4-benzyl-4-hydroxypiperidin-1-yl)-acetamide]-dihydrochloride], with 18 nM; and `Cn1c(CCc2ccc(C(=N)N)cc2)nc2cc(N(Cc3cccc4ccccc34)C(=O)CNCc3cccc(N)c3)ccc21` [Example 28, N-{2-[2-(4-Amidinophenyl)-ethyl]-1-methyl-benzimidazol-5-yl}-N-( - naphthylmethy)-[3-aminobenzylamino-acetamide]-trihydrochloride], with 10 nM. Take `Cn1c(CCc2ccc(C(=N)N)cc2)nc2cc(N(Cc3cccc4ccccc34)C(=O)CCCN)ccc21` [Example 20, N-{2-[2-(4-Amidinophenyl)-ethyl]-1-methyl-benzimidazol-5-yl}-N-- naphthylmethyl-[4-amino-butanoic acid amide]-dihydrochloride]: the IC50 was 39 nM. Then `Cn1c(CCc2ccc(C(=N)N)cc2)nc2cc(N(Cc3cccc4ccccc34)C(=O)CNCc3cccc(C(=N)N)c3)ccc21` [Example 8, N-{2-[2-(4-Amidinophenyl)-ethyl]-1-methylbenzimidazol-5-yl}-N-(α-naphthylmethyl)-[3-amidinobenzylaminoacetamide]-trihydrochloride], with 16 nM; and `CCOC(=O)c1ccc(CNCC(=O)N(Cc2cccc3ccccc23)c2ccc3c(c2)nc(CCc2ccc(C(=N)N)cc2)n3C)cc1` [Example 65, N-{2-[2-(4-Amidinophenyl)-ethyl]-1-methyl-benzimidazol-5-yl}-N-( - naphthylmethyl)-[2-(4-ethylcarboxylatbenzylamino)-acetamide]-dihydrochloride], with 27 nM. Then `Cn1c(CCc2ccc(C(=N)N)cc2)nc2cc(N(Cc3ccccc3)C(=O)CCCN)ccc21` [Example 36, N-{2-[2-(4-Amidinophenyl)-ethyl]-1-methyl-benzimidazol-5-yl}-N-benzyl-[4-amino-butanoic acid amide]-dihydrochloride], with 70 nM; and `Cn1c(CCc2ccc(C(=N)N)cc2)nc2cc(N(Cc3cccc4ccccc34)C(=O)CNCc3cccc(C(=N)N)c3)ccc21` [Example 46, N-{2-[2-(4-Amidinophenyl)-ethyl]-1-methyl-benzimidazol-5-yl}-N-( - naphthylmethyl)-[2-(3-amidinobenzylamino)-acetamide]-trihydrochloride], with 27 nM. For the compound `Cn1c(CCc2ccc(C(=N)N)cc2)nc2cc(N(Cc3cccc4ccccc34)C(=O)CNCc3ccc(-c4ccccc4)cc3)ccc21` [Example 45, N-{2-[2-(4-Amidinophenyl)-ethyl]-1-methyl-benzimidazol-5-yl}-N-( - naphthylmethyl)-[2-(4-phenylbenzylamino)-acetamide]-dihydrochloride], the concentration for half-maximal inhibition (IC50) is 12 nM. Then `Cn1c(CCc2ccc(C(=N)N)cc2)nc2cc(N(Cc3cccc4ccccc34)C(=O)CCC3CCNCC3)ccc21` [Example 38, N-{2-[2-(4-Amidinophenyl)-ethyl]-1-methyl-benzimidazol-5-yl}-N-( - naphthylmethyl)-[3-(piperidin-4-yl)-propionamide]-dihydrochloride], with 47 nM; and `Cn1c(CCc2ccc(C(=N)N)cc2)nc2cc(N(Cc3cccc4ccccc34)C(=O)CNCc3ccc(N4CCCC4)cc3)ccc21` [Example 82, N-{2-[2-(4-Amidinophenyl)-ethyl]-1-methyl-benzimidazol-5-yl}-N-( - naphthylmethyl)-[2-(N-4-pyrrolidin-1-ylbenzylamino)-acetamide]-dihydrochloride], with 4.9 nM. Then `Cn1c(CCc2ccc(C(=N)N)cc2)nc2cc(N(Cc3cccc4ccccc34)C(=O)CCCCNC(=N)N)ccc21` [Example 27, N-{2-[2-(4-Amidinophenyl)-ethyl]-1-methyl-benzimidazol-5-yl}-N-(- naphthylmethyl)-[5-guanidino-pentanoic acid amide]-dihydrochloride], with 26 nM.
